The results in this text go back to patent US20250115597A1, “TYK2 INHIBITORS AND COMPOSITIONS AND METHODS THEREOF” (LYNK PHARMACEUTICALS CO. LTD., priority 2021, published 2025).

By IC50 is commonly meant the midpoint of a concentration-inhibition curve. A high value points to weaker potency.

For one test, the target named is T1, JAK1-JH2 domain (Homo sapiens, UniProt P23458).
T1 construct: IC50 on JH2 domain activity (nM)
The test is described as follows: Binding activity test for JH2 domain of JAK1 (Tb-antibody/tracer FRET). Here is the method:
(§1) Binding Activity Test for […] Domain of JAK1 and TYK2 The compounds are prepared in DMSO for 200× top dose, then serial dilute it with 27-fold for 3 more points. Add 8 μL/well in echo source plate, echo will add 75 nL/well with 3-fold serial dilution for 11 points in assay plate. 75 nL DMSO for high control and low control. […] For low control, add 5 μL/well assay buffer. And then spin down at 1000 rpm and centrifuge for 30 seconds. After enzyme system prepared, add 5 μL of Tb-antibody solution into each wells of assay plate. Spin down at 1000 rpm and centrifuge for 30 sec. After Tb-antibody added, also add 5 μL of tracer into the assay plate. Spin down at 1000 rpm and centrifuge for 30 sec. Incubate for 60 mins at 25° C. firstly and then continue to incubate the plate at 4° C. overnight. Read by envision in FRET mode. The Luminescence value was recorded by a multi-label reader Envision (PerkinElmer).

The target of test [1] is T2, Ba/F3-FL-TYK2-P760L cells (Homo sapiens, UniProt P29597, P760L, cells depend on it).
T2 construct: BaF3-FL-T2P760L (nM)
T2 sequence (P29597 whole entry P760L): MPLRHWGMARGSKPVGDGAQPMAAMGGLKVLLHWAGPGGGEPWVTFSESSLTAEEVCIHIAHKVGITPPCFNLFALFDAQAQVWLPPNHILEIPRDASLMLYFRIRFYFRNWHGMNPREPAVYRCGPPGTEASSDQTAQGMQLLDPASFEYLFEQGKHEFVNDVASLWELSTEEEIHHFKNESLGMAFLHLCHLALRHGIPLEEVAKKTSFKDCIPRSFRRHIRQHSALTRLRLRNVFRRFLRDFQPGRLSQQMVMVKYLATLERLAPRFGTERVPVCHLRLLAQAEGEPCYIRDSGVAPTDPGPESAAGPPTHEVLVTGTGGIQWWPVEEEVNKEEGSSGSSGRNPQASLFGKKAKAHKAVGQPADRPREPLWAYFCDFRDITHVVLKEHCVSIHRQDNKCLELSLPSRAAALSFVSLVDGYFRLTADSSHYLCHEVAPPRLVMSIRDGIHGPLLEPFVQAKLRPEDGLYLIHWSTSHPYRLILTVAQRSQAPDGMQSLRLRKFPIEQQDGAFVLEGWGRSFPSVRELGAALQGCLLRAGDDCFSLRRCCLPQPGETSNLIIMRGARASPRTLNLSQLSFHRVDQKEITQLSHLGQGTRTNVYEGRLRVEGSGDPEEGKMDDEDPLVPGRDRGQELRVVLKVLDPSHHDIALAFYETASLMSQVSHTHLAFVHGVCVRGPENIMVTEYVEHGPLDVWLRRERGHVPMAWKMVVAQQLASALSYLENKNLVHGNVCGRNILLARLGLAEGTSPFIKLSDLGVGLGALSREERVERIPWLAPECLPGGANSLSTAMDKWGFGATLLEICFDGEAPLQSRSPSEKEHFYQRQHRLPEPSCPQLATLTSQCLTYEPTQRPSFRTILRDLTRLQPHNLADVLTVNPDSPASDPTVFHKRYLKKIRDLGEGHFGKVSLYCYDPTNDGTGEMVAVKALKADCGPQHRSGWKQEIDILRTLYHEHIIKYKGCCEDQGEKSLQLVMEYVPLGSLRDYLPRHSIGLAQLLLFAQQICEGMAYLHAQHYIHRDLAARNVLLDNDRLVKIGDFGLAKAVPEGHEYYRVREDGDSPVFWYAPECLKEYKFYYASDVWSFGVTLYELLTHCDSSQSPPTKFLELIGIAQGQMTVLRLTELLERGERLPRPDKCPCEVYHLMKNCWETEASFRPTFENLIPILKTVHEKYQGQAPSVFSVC
The experiment in a line: Anti-proliferative assay, Ba/F3-FL-TYK2-P760L cells (Cell-Titer Glo). The class given is cell-based. Conditions: 72 h, read-out: BaF3-FL-T2P760L IC50. In short, it runs like this: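 Ba/F3 cells made IL-3-independent by TEL-fused or full-length mutant JAK-family kinases, seeded at 2000/well and dosed after 24 h with 9 three-fold dilutions topping at 20 μM. Viability after 72 h at 37 °C, 5% CO2 by Cell-Titer Glo ATP luminescence.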

Another test concerns the target T3, TYK2-JH2 domain (Homo sapiens, UniProt P29597).
T3 construct: IC50 on JH2 domain activity (nM)
The test is described as follows: Binding activity test for JH2 domain of TYK2 (Tb-antibody/tracer FRET). As to conditions: for JAK1/TYK2 selectivity: ratio JAK1-JH2 IC50 / TYK2-JH2 IC50. Here is the method:
as §1

SMILES strings stand for the structures. Where only a bound is given, the exact number is not on record here.

T1 sequence (P23458 583-855 limits assumed): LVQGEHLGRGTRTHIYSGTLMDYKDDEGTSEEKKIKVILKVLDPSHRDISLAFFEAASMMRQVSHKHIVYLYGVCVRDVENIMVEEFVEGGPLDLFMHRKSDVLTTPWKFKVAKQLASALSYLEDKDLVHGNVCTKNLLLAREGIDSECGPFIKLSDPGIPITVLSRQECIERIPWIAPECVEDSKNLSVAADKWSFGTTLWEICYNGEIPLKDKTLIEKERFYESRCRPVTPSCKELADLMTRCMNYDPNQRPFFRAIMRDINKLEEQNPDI
T3 sequence (P29597 589-875 limits assumed): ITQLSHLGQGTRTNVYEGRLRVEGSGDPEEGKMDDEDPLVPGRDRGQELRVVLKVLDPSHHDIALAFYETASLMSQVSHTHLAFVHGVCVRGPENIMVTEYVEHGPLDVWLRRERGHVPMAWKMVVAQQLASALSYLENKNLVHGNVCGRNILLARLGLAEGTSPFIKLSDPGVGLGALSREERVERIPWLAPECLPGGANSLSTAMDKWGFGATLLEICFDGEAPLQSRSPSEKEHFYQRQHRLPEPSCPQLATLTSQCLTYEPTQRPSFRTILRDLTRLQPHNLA

`[2H]C([2H])([2H])NC(=O)c1cnc(NC(=O)C2CC2)cc1Nc1ccc2cnn(C(C)C#N)c2c1OC` (single isomer, unassigned) [Example 249A, (R*)-4-((1-(1-cyanoethyl)-7-methoxy-1H-indazol-6-yl)amino)-6-(cyclopropanecarboxamido)-N-(methyl-d3)nicotinamide] gave an IC50 at JAK1-JH2 domain of 18 nM. Besides, the GI50 in test [1] came out at 495 nM. Besides, on TYK2-JH2 domain, the IC50 turned out to be 0.715 nM and the JAK1/TYK2 selectivity came out at 25.15.
Take `[2H]C([2H])([2H])NC(=O)c1cnc(NC(=O)C2CC2)cc1Nc1ccc2cnn(C(C)C#N)c2c1OC` (single isomer, unassigned) [Example 249B, (S*)-4-((1-(1-cyanoethyl)-7-methoxy-1H-indazol-6-yl)amino)-6-(cyclopropanecarboxamido)-N-(methyl-d3)nicotinamide]: the IC50 on JAK1-JH2 domain came to 29 nM; at TYK2-JH2 domain it was 0.738 nM. In addition, in test [1], the GI50 was 342 nM. Moreover, the JAK1/TYK2 selectivity on TYK2-JH2 domain is on record as 39.25.
Compound `[2H]C([2H])([2H])NC(=O)c1cnc(NC(=O)C2CC2)cc1Nc1ccn2ncc(C(C)C#N)c2c1OC` (single isomer, unassigned) [Example 251A, (R*)-4-((3-(1-cyanoethyl)-4-methoxypyrazolo[1,5-a]pyridin-5-yl)amino)-6-(cyclopropanecarboxamido)-N-(methyl-d3)nicotinamide] gave an IC50 at JAK1-JH2 domain of 97.2 nM. For the same compound, the GI50 in test [1] came to 541 nM. Also, at TYK2-JH2 domain, the IC50 came out at 1.03 nM and the JAK1/TYK2 selectivity is recorded as 94.03.
On the same counts, the results for `[2H]C([2H])([2H])NC(=O)c1cnc(NC(=O)C2CC2)cc1Nc1ccn2ncc(C(C)C#N)c2c1OC` (single isomer, unassigned) [Example 251B, (S*)-4-((3-(1-cyanoethyl)-4-methoxypyrazolo[1,5-a]pyridin-5-yl)amino)-6-(cyclopropanecarboxamido)-N-(methyl-d3)nicotinamide] are 4.6 nM, 103 nM, 0.266 nM and 17.30.
For the compound `CCNC(=O)c1cnc(NC(=O)C2CC2)cc1Nc1ccc2cnn(CC)c2c1OC` [Example 97, 6-(Cyclopropanecarboxamido)-N-ethyl-4-((1-ethyl-7-methoxy-1H-indazol-6-yl)amino)nicotinamide], the IC50 on JAK1-JH2 domain is above 299 nM; at TYK2-JH2 domain, 4.38 nM. In test [1], the GI50 was determined as 1270 nM.
As for `[2H]C([2H])([2H])NC(=O)c1cnc(NC(=O)C2CC2)cc1Nc1nn(CCC)c2ccn(CC(F)(F)F)c(=O)c12` [Example 208, 6-(Cyclopropanecarboxamido)-N-(methyl-d3)-4-((4-oxo-1-propyl-5-(2,2,2-trifluoroethyl)-4,5-dihydro-1H-pyrazolo[4,3-c]pyridin-3-yl)amino)nicotinamide], the IC50 came to 34.7 nM at JAK1-JH2 domain and 0.248 nM on TYK2-JH2 domain. Also, the GI50 in test [1] was found to be 64.6 nM. The JAK1/TYK2 selectivity on TYK2-JH2 domain turned out to be 140.1.
The corresponding values for `[2H]C([2H])([2H])NC(=O)c1cnc(NC(=O)C2CC2)cc1Nc1cn(CC(F)(F)F)c2ccn(CC)c(=O)c12` [Example 209, 6-(Cyclopropanecarboxamido)-4-((5-ethyl-4-oxo-1-(2,2,2-trifluoroethyl)-4,5-dihydro-1H-pyrrolo[3,2-c]pyridin-3-yl)amino)-N-(methyl-d3)nicotinamide] are 11.2 nM, 0.158 nM, 52.6 nM and 70.8.
The corresponding values for `[2H]C([2H])([2H])NC(=O)c1cnc(NC(=O)CC)cc1Nc1ccc2cnn(CC)c2c1OC` [Example 229, 4-((1-Ethyl-7-methoxy-1H-indazol-6-yl)amino)-N-(methyl-d3)-6-propionamidonicotinamide] are 105 nM, 1.68 nM, 564 nM and 62.5.
On the same counts, the results for `[2H]C([2H])([2H])NC(=O)c1cnc(NC(C)=O)cc1Nc1ccc2cnn(CC)c2c1OC` [Example 230, 6-Acetamido-4-((1-ethyl-7-methoxy-1H-indazol-6-yl)amino)-N-(methyl-d3)nicotinamide] are 58.7 nM, 3.01 nM, 478 nM and 19.5.
Turning to `[2H]C([2H])([2H])NC(=O)c1cnc(NC(=O)C2CC(C)C2)cc1Nc1ccc2cnn(CC)c2c1OC` (stereo not drawn) [Example 236, 4-((1-Ethyl-7-methoxy-1H-indazol-6-yl)amino)-N-(methyl-d3)-6-(3-methylcyclobutane-1-carboxamido)nicotinamide], the IC50 at JAK1-JH2 domain stood at 43.8 nM. Besides, the GI50 in test [1] is 892 nM. On TYK2-JH2 domain, the IC50 stood at 0.969 nM and the JAK1/TYK2 selectivity was 45.2.
The corresponding values for `[2H]C([2H])([2H])NC(=O)c1cnc(Nc2ccn(C)n2)cc1Nc1ccn2ncc(C#N)c2c1OC` [Example 240, 4-((3-Cyano-4-methoxypyrazolo[1,5-a]pyridin-5-yl)amino)-N-(methyl-d3)-6-((1-methyl-1H-pyrazol-3-yl)amino)nicotinamide] are 5.07 nM, 70.7 nM, 0.26 nM and 19.5.
On the same counts, the results for `[2H]C([2H])([2H])NC(=O)c1cnc(NC(=O)C2CCC2)cc1Nc1ccc2cnn(CC)c2c1OC` [Example 242, 6-(Cyclobutanecarboxamido)-4-((1-ethyl-7-methoxy-1H-indazol-6-yl)amino)-N-(methyl-d3)nicotinamide] are 45.3 nM, 404 nM, 1.18 nM and 38.5.
As for `[2H]C([2H])([2H])NC(=O)c1cnc(NC(=O)C2CC2)cc1Nc1ccn2ncc(CC(N)=O)c2c1OC` [Example 243, 4-((3-(2-Amino-2-oxoethyl)-4-methoxypyrazolo[1,5-a]pyridin-5-yl)amino)-6-(cyclopropanecarboxamido)-N-(methyl-d3)nicotinamide], the IC50 on JAK1-JH2 domain came to 130 nM. The GI50 in test [1] was above 5000 nM. Besides, on TYK2-JH2 domain, the IC50 was found to be 3.45 nM and the JAK1/TYK2 selectivity came to 37.7.
The corresponding values for `CCn1ccc2c(c(Nc3cc(NC(=O)C4CC4)ncc3C(=O)NC)cn2C2CC2)c1=O` [Example 245, 6-(Cyclopropanecarboxamido)-4-((1-cyclopropyl-5-ethyl-4-oxo-4,5-dihydro-1H-pyrrolo[3,2-c]pyridin-3-yl)amino)-N-methylnicotinamide] are 4.34 nM, 56.4 nM, 0.157 nM and 27.7.
On the same counts, the results for `[2H]C([2H])([2H])NC(=O)c1cnc(NC(=O)C2CC2)cc1Nc1ccn2ncc(C3CC3)c2c1OC` [Example 250, 6-(Cyclopropanecarboxamido)-4-((3-cyclopropyl-4-methoxypyrazolo[1,5-a]pyridin-5-yl)amino)-N-(methyl-d3)nicotinamide] are 7.04 nM, 160 nM, 0.233 nM and 30.19.
The corresponding values for `[2H]C([2H])([2H])NC(=O)c1cnc(NC(=O)C2CC2)cc1Nc1ccn2ncc(C(C)C#N)c2c1OC` (stereo not drawn) [Example 251, 4-((3-(1-Cyanoethyl)-4-methoxypyrazolo[1,5-a]pyridin-5-yl)amino)-6-(cyclopropanecarboxamido)-N-(methyl-d3)nicotinamide] are 5.57 nM, 117 nM, 0.304 nM and 18.32.
Turning to `[2H]C([2H])([2H])NC(=O)c1cnc(NC(=O)C2CC2)cc1Nc1ccn2ncc(C(C)C(N)=O)c2c1OC` (stereo not drawn) [Example 252, 4-((3-(1-Amino-1-oxopropan-2-yl)-4-methoxypyrazolo[1,5-a]pyridin-5-yl)amino)-6-(cyclopropanecarboxamido)-N-(methyl-d3)nicotinamide], the IC50 at JAK1-JH2 domain came to 212 nM. For the same compound, the GI50 in test [1] is above 5000 nM. On TYK2-JH2 domain, the IC50 was found to be 1.68 nM and the JAK1/TYK2 selectivity was determined as 125.69.
In the case of `[2H]C([2H])([2H])NC(=O)c1cnc(NC(=O)C2CC2)cc1Nc1ccn2ncc(F)c2c1OC` [Example 253, 6-(Cyclopropanecarboxamido)-4-((3-fluoro-4-methoxypyrazolo[1,5-a]pyridin-5-yl)amino)-N-(methyl-d3)nicotinamide], the IC50 is 19 nM at JAK1-JH2 domain and 0.783 nM at TYK2-JH2 domain. In addition, the GI50 in test [1] was 232 nM. In addition, the JAK1/TYK2 selectivity on TYK2-JH2 domain came to 24.33.
`[2H]C([2H])([2H])NC(=O)c1cnc(Nc2ccn(C)n2)cc1Nc1ccn2ncc(C)c2c1OC` [Example 255, 4-((4-Methoxy-3-methylpyrazolo[1,5-a]pyridin-5-yl)amino)-N-(methyl-d3)-6-((1-methyl-1H-pyrazol-3-yl)amino)nicotinamide]: the IC50 at JAK1-JH2 domain came to 4.42 nM. Further, in test [1], the GI50 was determined as 116 nM. Moreover, on TYK2-JH2 domain, the IC50 is 0.323 nM and the JAK1/TYK2 selectivity was determined as 13.7.
